Experimental data published in patent US20220411439A1, “POLYMORPHS OF A MACROCYCLIC KINASE INHIBITOR” (TURNING POINT THERAPEUTICS, INC., priority 2019, published 2022).
Where two headings read alike, the source gives them in different places.

Molecular target: T1, Ba/F3 KIF5B-RET (Homo sapiens, UniProt P07949, cells depend on it, form not given)
T1 construct: IC50 (nM); other: Experiment 1; other: Experiment 2; fused on or other part: P33176 (Kinesin-1 heavy chain)
Experiment: Compound I anti-cell proliferation comparison (FIG. 5A, 5B)
Assay type: cell-based
Conditions: for GI50: read-out: IC50 (the source's name)
Description: The KIF5B-RET gene was synthesized at GenScript and cloned into pCDH-CMV-MCS-EF1-Puro plasmid (System Biosciences, Inc). KIF5B-RET point mutation V804M and G810C were generated at GenScript by PCR and confirmed by sequencing. Ba/F3-KIF5B-RET wild type and mutant were generated by transducing Ba/F3 cells with lentivirus containing KIF5B-RET wide type or mutant. Stable cell lines were selected by puromycin treatment, followed by IL-3 withdrawal. Briefly, 5×10^6 Ba/F3 cells were transduced with lentivirus supernatant in the presence of 8 μg/mL protamine sulfate. The transduced cells were subsequently selected with 1 μg/mL puromycin in the presence of IL3-containing medium RPMI1640, plus 10% FBS. After 10-12 days of selection, the surviving cells were further selected for […] independent growth.
Two thousand cells per well were seeded in 384 well white plate for 24 hrs, and then treated with compounds for 72 hours (37° C., 5% CO2). Cell proliferation was measured using CellTiter-Glo luciferase-based ATP detection assay (Promega) following the manufactures's protocol. IC50 determinations were performed using GraphPad Prism software (GraphPad, Inc., San Diego, Calif.).

T1 sequence (P07949 whole entry G810C, form open, the tested form may be a part): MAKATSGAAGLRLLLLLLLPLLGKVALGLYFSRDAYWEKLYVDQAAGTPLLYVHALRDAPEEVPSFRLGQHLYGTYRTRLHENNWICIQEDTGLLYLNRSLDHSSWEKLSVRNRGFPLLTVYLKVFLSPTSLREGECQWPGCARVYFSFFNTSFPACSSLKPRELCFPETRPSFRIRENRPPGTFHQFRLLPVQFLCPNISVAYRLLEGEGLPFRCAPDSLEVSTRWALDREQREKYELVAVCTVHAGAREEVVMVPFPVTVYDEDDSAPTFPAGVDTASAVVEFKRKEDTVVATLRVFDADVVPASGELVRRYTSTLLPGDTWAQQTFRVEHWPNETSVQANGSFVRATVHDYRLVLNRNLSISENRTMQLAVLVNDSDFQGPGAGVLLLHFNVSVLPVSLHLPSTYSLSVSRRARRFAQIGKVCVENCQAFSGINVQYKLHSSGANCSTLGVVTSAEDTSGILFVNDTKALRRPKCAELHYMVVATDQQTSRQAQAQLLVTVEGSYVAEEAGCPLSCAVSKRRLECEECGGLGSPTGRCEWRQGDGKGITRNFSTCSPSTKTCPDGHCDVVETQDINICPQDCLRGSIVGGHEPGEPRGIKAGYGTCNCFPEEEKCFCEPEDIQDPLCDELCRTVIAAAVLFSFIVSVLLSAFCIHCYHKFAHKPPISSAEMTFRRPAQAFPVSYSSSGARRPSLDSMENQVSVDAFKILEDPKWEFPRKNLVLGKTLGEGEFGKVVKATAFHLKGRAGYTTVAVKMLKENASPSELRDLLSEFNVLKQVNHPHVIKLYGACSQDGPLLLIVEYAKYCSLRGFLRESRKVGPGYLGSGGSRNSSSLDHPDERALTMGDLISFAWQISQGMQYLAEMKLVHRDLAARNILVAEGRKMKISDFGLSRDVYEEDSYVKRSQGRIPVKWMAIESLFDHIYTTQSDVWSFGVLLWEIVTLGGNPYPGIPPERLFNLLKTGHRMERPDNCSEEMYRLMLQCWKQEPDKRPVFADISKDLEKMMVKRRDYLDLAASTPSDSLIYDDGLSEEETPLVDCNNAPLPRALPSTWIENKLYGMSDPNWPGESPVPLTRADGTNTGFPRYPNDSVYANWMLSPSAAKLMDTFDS

In the case of CO[C@]1(C(=O)N[C@@H](C)c2ccc(-n3cc(F)cn3)nc2)CC[C@H](c2nc(C)cc(Nc3cc(C)[nH]n3)n2)CC1 [BLU-667], the “IC75” value (Experiment 1) is reported as 115.4 nM, the IC90 (Experiment 1) is reported as 720 nM and the GI50 (Experiment 1) is reported as 18.5 nM. The “IC75” value (Experiment 2) was 214.3 nM, the IC90 (Experiment 2) was 1030 nM and the GI50 (Experiment 2) was 44.6 nM.
